Test results from PubChem BioAssay (NCI).
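Five concentrations, 48 hours, 96-well plates. At the GI50, growth is halved. TGI: concentration producing complete growth inhibition.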

Experiments:
Assay in all cases: NCI-60 cell line screen, 48 h
[1] = test system: RXF 393 renal
[2] = test system: CCRF-CEM leukemia
[3] = test system: SK-MEL-5 melanoma
[4] = test system: U251 CNS
[5] = test system: CAKI-1 renal
[6] = test system: LOX IMVI melanoma
[7] = test system: M14 melanoma
[8] = test system: MALME-3M melanoma
[9] = test system: SNB-19 CNS
[10] = test system: BT-549 breast

SMILES | TGI [1] [µM] | TGI [2] [µM] | TGI [3] [µM] | TGI [4] [µM] | TGI [5] [µM] | TGI [6] [µM] | TGI [7] [µM] | TGI [8] [µM] | TGI [9] [µM] | TGI [10] [µM] | GI50 [1] [µM] | GI50 [3] [µM] | GI50 [4] [µM] | GI50 [10] [µM] | GI50 [5] [µM] | GI50 [6] [µM] | GI50 [7] [µM] | GI50 [9] [µM] | GI50 [8] [µM] | GI50 [2] [µM]
Cc1ccccc1NC(=O)C(=O)CC(=O)C1CCOC1=O (centres undefined) | > 100 | > 100 | > 100 | > 100 | > 100 | > 100 | > 100 | > 100 | > 100 |  |  |  |  |  |  |  |  |  |  | 
COC(=O)C1=CO[C@@H](OC2OC(CO)C(O)C(O)C2O)[C@@H]2[C@H](C)[C@@H](O)[C@@H](O)[C@]12O (some centres undefined) | > 100 |  | > 100 | > 100 | > 100 | > 100 | > 100 | > 100 | > 100 | > 100 |  |  |  |  |  |  |  |  |  | 
CCOC(=O)C1=C(C)N(NC(=O)OC)C2(N)N(NC(=O)OC)C(C)=C(C(=O)OCC)C12C#N (centres undefined) |  |  | > 100 | > 100 | > 100 | > 100 | > 100 | > 100 | > 100 |  |  |  |  |  |  |  |  |  |  | 
COc1cc2c(c(OC)c1OC)C(=O)c1c-2n(CCCN=[N+]=[N-])c(=O)c2cc([N+](=O)[O-])ccc12 | 66.1 |  | > 100 | > 100 | > 100 | > 100 | > 100 |  | > 100 | > 100 | 19.1 | > 100 | 58 | 27.3 | 60.6 | > 100 | > 100 | 72.6 |  | 
Cc1cc(Cl)cc2c1NC(=O)C2(O)CC(=O)c1ccc(F)cc1 (centres undefined) | 41.5 |  |  | > 100 | > 100 | > 100 | > 100 | 75.1 | > 100 |  |  |  |  |  |  |  |  |  |  | 
Cc1cccc(Cl)c1NC(=O)c1cccc([N+](=O)[O-])c1O | 50.7 | > 100 |  | > 100 | > 100 | 82.9 | > 100 | 84.7 | > 100 |  |  |  |  |  |  |  |  |  |  | 
OCCSCC/C(=N\N=C(/CCSCCO)c1ccccc1)c1ccccc1 | 99.7 | > 100 | > 100 | > 100 | > 100 | > 100 | > 100 | > 100 | > 100 |  |  |  |  |  |  |  |  |  |  | 
CCOC(=O)N1CCc2cc(OC)c(OC)cc2/C1=C/c1ccc(OC)c(OC)c1 | > 100 | > 100 | 44.4 | > 100 |  | > 100 | > 100 | 67.6 | > 100 |  |  |  |  |  |  |  |  |  |  | 
Cc1ccc(S(=O)(=O)N[C@@H](Cc2ccccc2)C(=O)CCl)cc1 | 37.2 |  | 28.3 | 24.5 | 34.7 | 10.4 | 63.1 | 40 | 47.2 | 24 | 14.6 |  | 9.3 | 6.64 | 16.7 | 2.31 | 19.9 |  | 18.1 | 
Cc1cc(S(=O)(=O)Nc2nc3ccccc3[nH]2)c(SCc2ccccc2)cc1Cl | > 100 | 24.8 | > 100 | 50.7 | 6.1 | > 100 | > 100 |  | > 100 | > 100 | > 100 | > 100 | 14.9 | > 100 | 2.1 | 28.4 | > 100 | 36 |  | 12.3
O=C([CH-]C(=O)c1ccccc1)c1ccccc1.[CH3-].[CH3-].[CH3-].[Sn+4] | 31.9 |  | 35.1 | 52 | > 100 | 25.9 | 29.5 | 29.6 | 73 |  | 10.6 | 8.21 | 6.87 |  | 13.6 | 7.95 | 14.7 | 14.8 | 10.7 | 
Oc1cc2c(cc1C(c1ccc3c(c1)OCO3)N1CCN(C(c3ccc4c(c3)OCO4)c3cc4c(cc3O)OCO4)CC1)OCO2 (centres undefined) | > 100 |  | 37.9 | 28.7 | 47.9 | 18.7 | 27.5 | 38.9 | 43.6 | 45.1 |  |  |  |  |  |  |  |  |  | 
COc1ccc(C2CC(c3cccc(OC)c3)=NN2C(=O)c2cc(OC)c(OC)c(OC)c2)cc1 (centres undefined) |  | > 29.6 | > 40.4 | > 100 | > 100 | > 100 | > 29.3 |  | > 100 | > 100 |  | 0.534 | 3.04 | 2.05 | 1.22 | 4.26 | 1.56 | 3.16 |  | 1.84
C=C(CN(C)Cc1ccccc1)c1ccc(C(=O)Nc2ccccc2N)cc1 |  |  | 14.6 | 13.8 | 14.8 | 3.69 | 41.2 |  | 43.2 | 10.1 |  | 6.72 | 3.34 | 1.48 | 3.43 | 1.05 | 13.4 | 6.47 |  | 
COc1ccc(C2SCC(=O)N2NC(=O)C(O)c2ccccc2)cc1 (centres undefined) | > 100 | > 100 | > 100 | > 100 | > 100 | > 100 | > 100 |  | > 100 | > 100 | > 100 | > 100 | > 100 | > 100 | > 100 | > 100 | > 100 | > 100 |  | > 100
O=C1[C@@H]2C(c3ccncc3)=NO[C@@H]2C(=O)N1c1ccc(Cc2ccc(N3C(=O)[C@H]4C(c5ccncc5)=NO[C@H]4C3=O)cc2)cc1 | > 100 | > 100 | > 100 | > 100 | > 100 | > 100 | > 100 | > 100 |  |  |  |  |  |  |  |  |  |  |  | 
C/C(CC(=O)Nc1ccccc1)=N\NC(N)=S | > 100 | > 100 | > 100 | > 100 |  | > 100 | > 100 | > 100 |  |  |  |  |  |  |  |  |  |  |  | 
Cc1cccc2c(N=Nc3ccccc3[N+](=O)[O-])c(O)[nH]c12 | 16.6 | > 43.6 | > 81.9 | 7.68 | 16.3 | 27.1 | > 100 |  | > 74.1 | > 74.1 |  |  |  |  |  |  |  |  |  | 
